From US4487924A, “2'-N-β-Lysyl) aminoglycosides” (Kowa Company, Ltd., priority 1982, dated 1984) come the findings set out here.

As usually defined, the MIC is the lowest concentration that inhibits growth of the organism.

What all share (assay): Antibiotic activity (MIC), Table 1
What all share (type): cell-based

Experiment [1] deals with P. aeruginosa RST-1 (AAC(3)-III). As to conditions: Pseudomonas aeruginosa, read-out: MIC.
Experiment [2] concerns B. subtilis ATCC 6633. As to conditions: Bacillus subtilis, ATCC6633, B. subtilis ATCC 6633; read-out: MIC.
Experiment [3] relates to E. coli ML 1410.
Experiment [4] deals with S. faecalis Imanari.
In experiment [5] the test system is S. aureus 209P JC-1.
Experiment [6] deals with P. maltophilia IID 1275.
The subject of experiment [7] is S. marcescens NHL.
The test system of experiment [8] is E. cloacae IID 977.
In experiment [9] the test system is P. inconstans 93.
Experiment [10] concerns P. aeruginosa NCTC 10490.
In experiment [11] the test system is P. aeruginosa GN315 (AAC(6')-IV). As to conditions: Pseudomonas aeruginosa, GN315, P. aeruginosa GN315 (AAC(6')-IV); read-out: MIC.
The test system of experiment [12] is P. vulgaris IID 874.
For experiment [13], the system named is K. pneumoniae 4687 (AAD(2")).
Experiment [14] deals with E. coli NIHJ JC-2.
Experiment [15] concerns P. cepacia 11D 1340. As to conditions: Burkholderia cepacia, 11D1340, read-out: MIC.
In experiment [16] the test system is E. coli JR 88 (AAC(3)-I). As to conditions: Escherichia coli, read-out: MIC.
Experiment [17] relates to P. putida IID 5121.
The test system of experiment [18] is P. aerugionosa TK-157 (APH(3')-II).
The subject of experiment [19] is K. pneumoniae PCI 602.
Experiment [20] deals with P. aeruginosa 99 (AAC(3)-I). As to conditions: Pseudomonas aeruginosa, read-out: MIC.
For experiment [21], the system named is P. inconstans GN1554 (AAC(2')).
Experiment [22] has as its system E. coli R176 (AAC(3)-II).
Experiment [23] concerns P. aeruginosa TI 13 (APH(3')-I).
Experiment [24] relates to E. coli ML 1410 R102 (AAD(2")).
The mark [25] stands for this setting: Escherichia coli, ML1410, E. coli ML 1410, read-out: MIC.
Where [26] appears, read: Enterococcus faecalis, read-out: MIC.
The mark [27] stands for this setting: Staphylococcus aureus, 209P, read-out: MIC.
[28] abbreviates: Stenotrophomonas maltophilia, IID1275, P. maltophilia IID 1275, read-out: MIC.
Setting [29] is: Serratia marcescens, read-out: MIC.
Setting [30] is: Enterobacter cloacae, IID977, E. cloacae IID 977, read-out: MIC.
The mark [31] stands for this setting: Pseudomonas aeruginosa, NCTC10490, P. aeruginosa NCTC 10490, read-out: MIC.
Setting [32] is: Klebsiella pneumoniae, read-out: MIC.
[33] abbreviates: Escherichia coli, NIHJJC2, E. coli NIHJ JC-2, read-out: MIC.
The mark [34] stands for this setting: Pseudomonas putida, IID5121, P. putida IID 5121, read-out: MIC.
Setting [35] is: Klebsiella pneumoniae, PCI602, K. pneumoniae PCI 602, read-out: MIC.
[36] abbreviates: Providencia alcalifaciens, GN1554, P. inconstans GN1554 (AAC(2')), read-out: MIC.
Where [37] appears, read: Escherichia coli, read-out: MIC.

≈ marks a conversion by molar mass, not a printed value. Where two headings read alike, the source gives them in different places.

On to `CNCC1CCC(NC(=O)C[C@@H](N)CCCN)C(OC2C(N)CC(OC)C(NC)C2O)O1` (stereo partly drawn) [2'-N-β-Lysyl KA-7038VI, 2'-N-(L-β-lysyl)-KA-7038VI], for which the MIC was above 100 µg/mL in experiment [1]; 3.13 µg/mL (≈ 6.8 µM) in [2]; 1.56 µg/mL (≈ 3.39 µM) in experiment [3] (setting [25]); 1.56 µg/mL (≈ 3.39 µM) in experiment [4] (setting [26]); 0.78 µg/mL (≈ 1.69 µM) in experiment [5] (setting [27]); 1.56 µg/mL (≈ 3.39 µM) in experiment [6] (setting [28]). Also, the minimal inhibitory concentration (MIC) in experiment [7] (setting [29]) is 0.78 µg/mL (≈ 1.69 µM); in experiment [8] (setting [30]), 6.25 µg/mL (≈ 13.6 µM); in experiment [9] (Providencia alcalifaciens, 93, P. inconstans 93, read-out: MIC), 0.78 µg/mL (≈ 1.69 µM); in [10] (setting [31]), 12.5 µg/mL (≈ 27.1 µM); in experiment [11], 100 µg/mL (≈ 217 µM); in experiment [12] (Proteus vulgaris, IID874, P. vulgaris IID 874, read-out: MIC), 25 µg/mL (≈ 54.3 µM). Also, the MIC in experiment [13] (setting [32]) was 3.13 µg/mL (≈ 6.8 µM); in [14] (setting [33]), 1.56 µg/mL (≈ 3.39 µM); in experiment [15], above 100 µg/mL; in experiment [16] it was 3.13 µg/mL (≈ 6.8 µM); in experiment [17] (setting [34]), 12.5 µg/mL (≈ 27.1 µM); in [18] (read-out: MIC) it was 25 µg/mL (≈ 54.3 µM). The MIC in experiment [19] (setting [35]) is 0.78 µg/mL (≈ 1.69 µM); in experiment [20], above 100 µg/mL; in experiment [21] (setting [36]), 0.78 µg/mL (≈ 1.69 µM); in [22] (setting [37]), 1.56 µg/mL (≈ 3.39 µM); in experiment [23] (Pseudomonas aeruginosa), 25 µg/mL (≈ 54.3 µM).
Consider `CNC1C(OC)CC(N)C(OC2OC(C(C)N)CCC2N)C1O` (stereo not shown) [KA-6606VIII, reference compound], for which the minimum inhibitory concentration (MIC) in experiment [1] turned out to be 100 µg/mL (≈ 301 µM); in experiment [2], 3.13 µg/mL (≈ 9.42 µM); in experiment [3] (E. coli ML 1410), 3.13 µg/mL (≈ 9.42 µM); in [4], 3.13 µg/mL (≈ 9.42 µM); in experiment [5], 0.78 µg/mL (≈ 2.35 µM); in experiment [6] (P. maltophilia IID 1275) it was 1.56 µg/mL (≈ 4.69 µM). For the same molecule, the MIC in [7] amounted to 1.56 µg/mL (≈ 4.69 µM); in experiment [8] (E. cloacae IID 977), 12.5 µg/mL (≈ 37.6 µM); in experiment [24] it was 0.78 µg/mL (≈ 2.35 µM); in experiment [9] (P. inconstans 93), 1.56 µg/mL (≈ 4.69 µM); in experiment [10] (P. aeruginosa NCTC 10490), 12.5 µg/mL (≈ 37.6 µM); in [11], 100 µg/mL (≈ 301 µM). Besides, the MIC in [12] (P. vulgaris IID 874) is 12.5 µg/mL (≈ 37.6 µM); in [13] it was 6.25 µg/mL (≈ 18.8 µM); in experiment [14] (E. coli NIHJ JC-2) it was 3.13 µg/mL (≈ 9.42 µM); in experiment [15] it was above 100 µg/mL; in experiment [16] it was 50 µg/mL (≈ 150 µM); in experiment [17] (P. putida IID 5121), 12.5 µg/mL (≈ 37.6 µM). Also, the MIC in [18] was 25 µg/mL (≈ 75.2 µM); in [19] (K. pneumoniae PCI 602) it was 0.78 µg/mL (≈ 2.35 µM); in [20] it was above 100 µg/mL; in experiment [21] (P. inconstans GN1554 (AAC(2'))), 1.56 µg/mL (≈ 4.69 µM); in [22], 3.13 µg/mL (≈ 9.42 µM); in experiment [23] it was 25 µg/mL (≈ 75.2 µM).
`CNC1C(O)CC(N)C(OC2OC(C(C)N)CCC2NC(=O)C[C@@H](N)CCCN)C1O` (stereo partly drawn) [2'-N-β-Lysyl 5-de-O-Me KA-6606VIII, 2'-N-(L-β-lysyl)-5-de-O-methyl-KA-6606VIII]: the MIC in experiment [1] is above 100 µg/mL; in experiment [2], 3.13 µg/mL (≈ 7.01 µM); in [3] (setting [25]) it was 6.25 µg/mL (≈ 14 µM); in [4] (setting [26]), 3.13 µg/mL (≈ 7.01 µM); in experiment [5] (setting [27]), 0.78 µg/mL (≈ 1.75 µM); in [6] (setting [28]) it was 1.56 µg/mL (≈ 3.49 µM). Also, the minimal inhibitory concentration (MIC) in experiment [7] (setting [29]) was 6.25 µg/mL (≈ 14 µM); in experiment [8] (setting [30]) it was 25 µg/mL (≈ 56 µM); in experiment [9] (P. inconstans 93), 3.13 µg/mL (≈ 7.01 µM); in [10] (setting [31]), 50 µg/mL (≈ 112 µM); in experiment [11], above 100 µg/mL; in [12] (P. vulgaris IID 874), 100 µg/mL (≈ 224 µM). Further, the MIC is 12.5 µg/mL (≈ 28 µM) in experiment [13] (setting [32]); 6.25 µg/mL (≈ 14 µM) in experiment [14] (setting [33]); above 100 µg/mL in experiment [15]; 6.25 µg/mL (≈ 14 µM) in [16]; 12.5 µg/mL (≈ 28 µM) in experiment [17] (setting [34]); 50 µg/mL (≈ 112 µM) in experiment [18] (read-out: MIC). Also, the MIC in experiment [19] (setting [35]) is 0.78 µg/mL (≈ 1.75 µM); in experiment [20], above 100 µg/mL; in experiment [21] (setting [36]) it was 1.56 µg/mL (≈ 3.49 µM); in experiment [22] (setting [37]) it was 6.25 µg/mL (≈ 14 µM); in experiment [23] (Pseudomonas aeruginosa) it was 50 µg/mL (≈ 112 µM).
